This is an account of results in patent publication US11191744B2, “Pharmaceutical active ingredient and use thereof, in particular for the prevention and treatment of metabolic disorders in humans and animals” (VALBIOTIS, priority 2017, dated 2021).

Holding throughout (assay type): in vivo
For test [1], the system named is db/db mice. Description: Fasting glycemia in db/db mice after 6 weeks of treatment. The settings on record: for effect on fasting glycemia (in words): db/db mice, after 6 weeks of treatment, versus CONTROL; for Fasting glycemia after 6 weeks of treatment: male db/db mice, fasted 6 h, compositions in the diet, mean values ± SEM. As to the method:
(§1) The composition was also compared to metformin, one of the main pharmaceutical molecules prescribed for the treatment of type 2 diabetes.
(§2) Experiments were performed on db/db mice, a model mimicking the characteristics of type 2 diabetes in humans (Roesler W J et al., Mol Cell Biochem 1990; 92(2):99-106). These mice are insulin-resistant, hypertriglyceridemic, and glucose intolerant. They very quickly develop pre-diabetes, a type 2 diabetes and then NASH.
(§3) The experimental time for the trial was […] with a 1 week run-in followed by 6 weeks of treatment. The male mice were 6 weeks old at the start of treatment. The (1S,3R,4R,5R)-3-{[(2E)-3-(3,4-dihydroxyphenyl)-2-propenoyl]oxy}-1,4,5-trihydroxycyclohexanecarboxylic acid alone, the methyl (2S,3E,4S)-4-{2-[2-(3,4-dihydroxyphenyl)ethoxy]-2-oxoethyl}-3-ethylidene-2-(β-D-glucopyranosyloxy)-3,4-dihydro-2H-pyran-5-carboxylate alone, and the mixture of these two molecules in a ratio of 1/4.65 have been tested and compared with metformin. These compositions were directly integrated into the diet of rodents, thus ensuring large-scale use, with injections, for example, intravenous, being limited to a small number given their mode of administration.
(§4) After randomization by weight and fasting glycemia, the animals were divided into the following groups: • Control (n=15): CONTROL; • Metformin (n=12, 0.2% of the diet): MET; • (1S,3R,4R,5R)-3-{[(2E)-3-(3,4-dihydroxyphenyl)-2-propenoyl]oxy}-1,4,5-trihydroxycyclohexanecarboxylic acid (n=12, 0.026% of the diet): V63X35; • The methyl (2S,3E,4S)-4-{2-[2-(3,4-dihydroxyphenyl)ethoxy]-2-oxoethyl}-3-ethylidene-2-(β-D-glucopyranosyloxy)-3,4-dihydro-2H-pyran-5-carboxylate (n=11, 0.12% of diet): V63X54; • The (1S,3R,4R,5R)-3-{[(2E)-3-(3,4-dihydroxyphenyl)-2-propenoyl]oxy}-1,4,5-trihydroxycyclohexanecarboxylic acid+methyl (2S,3E,4S)-4-{2-[2-(3,4-dihydroxyphenyl)ethoxy]-2-oxoethyl}-3-ethylidene-2-(β-D-glucopyranosyloxy)-3,4-dihydro-2H-pyran-5-carboxylate (n=11, respectively 0.026% and 0.12% of the feed): V63,000.
(§5) Experimental evaluations performed on an empty stomach (6 h) after 6 weeks of treatment were in particular concerned with: • The measurement of weight; • Measuring glycemia; • Measuring of insulinemia; • Measuring of serum triglycerides.
The synergistic effect on fasting glycemia was evaluated according to the Colby SR method described in “Calculation of the synergistic and antagonistic responses of herbicide combinations” Weeds, 1967, 15:20-22. A factor>1 indicates the existence of a synergistic effect. A factor<1 indicates the existence of an antagonist.
V63X54 represents the percent change in glycemia for the V63X54 group compared to the CONTROL group.

Test [2] has as its system db/db mice. Description: Fasting insulinemia in db/db mice after 6 weeks of treatment. The conditions noted are these: for Median values of insulinemia after 6 weeks of treatment: male db/db mice, fasted 6 h, compositions in the diet; for median insulinemia compared with CONTROL (in words): db/db mice, after 6 weeks of treatment. As to the method:
as §1, §2
FIG. 1 illustrates the evolution of insulinemia and glycemia (glucose) over time in this model (Joost H G et al., Animal Models in Diabetes Research, Humana Press). As for humans, the rise in glycemia is initially accompanied by an increase in insulinemia (associated with insulin resistance), evidence of a pancreas still able to secrete insulin, then a decrease, reflecting functional degeneration of the pancreas, and thus progression of type 2 diabetes with the need for insulin therapy (Kobayashi K et al., Metabolism: Clinical and experimental 2,000; 49:22-31 Tao H et al Nat Med 2014; 20(11):1263-1269).
as §3, §4, §5

Test [3] concerns db/db mice. Nature of the test: Fasting serum triglycerides in db/db mice after 6 weeks of treatment. As to the method:
as §1, §2
as §3, with “administration. […]” for “administration.”

“And” between values parts separate entries of the source, which are not always exact repeats. Identical values can stand only once.

As to `CN(C)C(=N)N=C(N)N` [MET, metformin, reference compound], in the test on db/db mice [1], the “effect on fasting glycemia (in words)” value is on record as “no effect”; the “Fasting glycemia after 6 weeks of treatment” value is 454 mg/dL and 454 ± 34 mg/dL. Moreover, the “Median values of insulinemia after 6 weeks of treatment” value in the test on db/db mice [2] amounted to 21.89 ng/mL. The “reduction of blood triglyceride levels” value in the test with db/db mice [3] (db/db mice, after 6 weeks of treatment, versus CONTROL) is 35.6%. Also, in the test with db/db mice [3] (male db/db mice, fasted 6 h, compositions in the diet, mean values ± SEM), the “Serum triglycerides after 6 weeks of treatment” value was found to be 132.6 ± 7.4 mg/dL.
`C/C=C1/[C@H](O[C@@H]2O[C@H](CO)[C@@H](O)[C@H](O)[C@H]2O)OC=C(C(=O)OC)[C@H]1CC(=O)OCCc1ccc(O)c(O)c1` [V63X54, methyl (2S,3E,4S)-4-{2-[2-(3,4-dihydroxyphenyl)ethoxy]-2-oxoethyl}-3-ethylidene-2-(β-D-glucopyranosyloxy)-3,4-dihydro-2H-pyran-5-carboxylate]: in the test on db/db mice [1], the “effect on fasting glycemia (in words)” value was “no effect” and the “Fasting glycemia after 6 weeks of treatment” value came out at 432 ± 27 mg/dL. Further, in the test on db/db mice [2], the “median insulinemia compared with CONTROL (in words)” value is recorded as “no difference” and the “Median values of insulinemia after 6 weeks of treatment” value is on record as 25.44 ng/mL.
For `O=C(/C=C/c1ccc(O)c(O)c1)O[C@@H]1C[C@](O)(C(=O)O)C[C@@H](O)[C@H]1O` [V63X35, (1S,3R,4R,5R)-3-{[(2E)-3-(3,4-dihydroxyphenyl)-2-propenoyl]oxy}-1,4,5-trihydroxycyclohexanecarboxylic acid], in that order: “no effect”, 454 ± 34 mg/dL, “no difference” and 22.39 ng/mL.
